Test results reported in patent publication US11882858B2, “Composition for skin whitening comprising β-mangostin as effective ingredient” (INDUSTRY-ACADEMIC COOPERATION FOUNDATION GYEONGSANG …, priority 2015, dated 2024).
Where a SMILES comes first, the peptide text is derived from it. The star is where a group is joined. Cbz = O=C(OCc1ccccc1)*

What was measured:
[1] = system: p62 and PMEL (premelanosome protein); assay: p62 and PMEL expression (Western blot); format: cell-based, mouse; conditions: for effect on the suppressed expression of p62 and PMEL induced by β-mangostin: autophagy inhibitor with β-mangostin and α-MSH
Procedure: (§1) Total proteins were extracted by using RIPA dissolving buffer (50 mM Tris-HCl (pH 8.0), 150 mM NaCl, 1% NP-40, 0.5% sodium dioxycholate and 0.1% SDS). The proteins were separated on a 10 to 15% SDS-PAGE, and transferred to a PVDF membrane (Millipore, Billerica, MA, USA). The membrane was then incubated with 5% skim milk and primary antibody for 1 hour in TBS (tris-buffer saline) containing 0.1% Tween 20. The antibodies against tyrosinase and TRP-1 were purchased from Santa Cruz Biotechnology, USA. LC3B, p62 and ATG5 were purchased from CST (Cell Signaling Technology, USA). The antibody against PMEL was purchased from Abcam (UK). Signal detection was made based on enhanced chemiluminescence (Bio-Rad).
Autophagy occurs through a fusion process between an autophagosome and a lysosome. In order to confirm whether or not the depigmentation effect induced by β-mangostin occurs through lysosome-dependent protein degradation during the autophagy process, B16F10 cells were treated with bafilomycin A1 (liquid vacuole type, H^+-ATPase inhibitor) which inhibits β-mangostin, α-MSH, and lysosome activity. As a result, as it is shown in FIG. 7, bafilomycin A1 inhibits, at the aforementioned conditions, the suppressed tyrosinase expression that has been induced by β-mangostin.

[2] = system: B16F10 mouse melanoma cells; assay: Melanin content in α-MSH-treated cells; format: cell-based; conditions: for influence on melanin content: co-treatment of inhibitor with β-mangostin and α-MSH; for melanin content reduction / change in melanin content: co-treatment with α-MSH, compared to α-MSH only; for melanin content reduction: 5 μM
Procedure: Measurement of melanin content was carried out by slightly modifying the method by Yang et al. (Yang et al., 2006, Acta pharmacologica Sinica 27, 1467-73). Specifically, B16F10 cells were inoculated into a 6-well plate and cultured for 24 hours. […] The cultured cells were collected after being subjected to trypsinization and dissolution in 1 N NaOH containing DMSO for 24 hours at 65° C. By using a microplate reader (Bio-Rad), melanin content was measured at 415 nm.
(§2) As a result, as it is shown in FIG. 3, cell pellets were turned into black color when the treatment is carried out with α-MSH only. […] Namely, it was shown that β-mangostin suppresses the pigmentation induced by α-MSH. […] In particular, when the treatment is carried out with β-mangostin at 5 μM, which is the same concentration as α-mangostin, melanin content was reduced by 40% or so.

tyrosinase [3] = assay: Tyrosinase expression (RT-PCR and Western blotting); format: cell-based, mouse; conditions: for effect on the suppressed tyrosinase expression induced by β-mangostin: autophagy inhibitor with β-mangostin and α-MSH
Procedure: (§3) Total RNA was extracted from the cells by using RiboEX reagent (GeneAll Biotechnology Co. Ltd, Seoul, South Korea). cDNA was synthesized by using 2 μg of RNA based on reverse transcription (Thermo Scientific, Waltham, MA, USA). PCR was carried out by using Solg™ e-Taq DNA polymerase kit (SolGent Co. Ltd, Daejeon, South Korea), and each primer described in the following Table 1 was used for PCR.
as §1, with “The proteins were separated on a 10 to 15% SDS-PAGE, and transferred to a PVDF membrane (Millipore, Billerica, MA, USA).” left out

tyrosinase [4] = molecular target: T1, tyrosinase (Mus musculus, UniProt P11344); assay: Tyrosinase activity (L-DOPA oxidation) in cell lysates; format: cell-based
T1 construct: The cultured cells were collected and dissolved with 1% Triton X-100 solution for 1 hour on ice; endogenous in cells; host or cells: B16F10 mouse melanoma cells
T1 sequence (P11344 19-533): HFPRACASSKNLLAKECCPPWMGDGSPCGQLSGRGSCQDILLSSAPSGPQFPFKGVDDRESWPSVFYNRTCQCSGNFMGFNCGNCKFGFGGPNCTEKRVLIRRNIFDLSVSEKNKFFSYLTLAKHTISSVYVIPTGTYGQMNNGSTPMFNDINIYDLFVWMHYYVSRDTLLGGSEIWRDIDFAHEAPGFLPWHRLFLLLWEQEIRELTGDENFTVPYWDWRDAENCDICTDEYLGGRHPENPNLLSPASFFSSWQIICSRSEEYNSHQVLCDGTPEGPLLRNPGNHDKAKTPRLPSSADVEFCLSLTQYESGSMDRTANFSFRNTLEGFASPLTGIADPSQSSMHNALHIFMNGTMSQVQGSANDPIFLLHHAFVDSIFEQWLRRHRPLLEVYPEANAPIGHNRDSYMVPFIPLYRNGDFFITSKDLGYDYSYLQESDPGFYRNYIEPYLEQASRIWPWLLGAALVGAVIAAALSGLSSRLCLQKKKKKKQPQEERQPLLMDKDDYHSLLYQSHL
Procedure: Tyrosinase activity was measured by slightly modifying the method by Ohgushi et al. (Ohgushi et al., 2009, Biological & Pharmaceutical Bulletin 32, 308-10). Specifically, B16F10 cells were inoculated into a 6-well plate and cultured for 24 hours. Thereafter, the cells were treated with β-mangostin and α-MSH, each at 1 μM, followed by culture for 48 hours. The cultured cells were collected and dissolved with 1% Triton X-100 solution for 1 hour on ice. The proteins were cultured with 100 μl (2 mg/ml) L-DOPA in a 5% CO2 humidifying incubator at 37° C. condition. By using a microplate reader (Bio-Rad), absorbance at 490 nm was measured.

[5] = system: B16F10 mouse melanoma cells; assay: Cell viability (MTT analysis); format: cell-based; conditions: 24 hours, at 20 μM and 40 μM
Procedure: B16F10 cells were cultured for 24 hours in a 96-well plate. […] Subsequently, a MTT solution (5 μg/mL) was added to the cells, which were then cultured for 3 hours. After removing the medium and treating the cells with DMSO, the cells were cultured for 20 minutes. By using a microplate reader (Bio-Rad), absorbance at 595 nm was measured.
Then, based on MTT […]-(4,5-dimethylthiazol-2-yl)-2,5-diphenyltetrazolium bromide) analysis, cell viability was determined.

[6] = system: mRFP-EGFP-LC3B in B16F10 cells; assay: Melanosome autophagy in cells expressing mRFP-EGFP-LC3B (confocal microscopy); format: cell-based, mouse; conditions: β-mangostin (10 μM) and α-MSH (1 μM)
Procedure: B16F10 cells were infected with mRFP-EGFP-LC3B (Kimura et al., 2007, Autophagy 3, 452-60) by using Lipofectamine 3000 (Invitrogen, Carlsbad, CA, USA). The cells were treated with β-mangostin (10 μM) and α-MSH (1 μM), and analysis was made by using confocal microscopy (FV1000, Olympus, Tokyo, Japan).
In order to confirm whether or not β-mangostin can induce the autophagy of a melanosome, B16F10 cells were infected with a construct expressing mRFP-EGFP-LC3B, and then treated with β-mangostin and α-MSH. […] On the other hand, the number of red spots increased in the group treated with both α-MSH and β-mangostin while total number of spots has decreased. If an autophagosome fuses with a lysosome only after wrapping the melanosome, the intra-autophagosomal pH should decrease, and EGFP should be abolished under acidic pH conditions. Accordingly, it was found from the above results that, due to the autophagy enhanced by β-mangostin, degradation of a melanosome has occurred.

[7] = system: B16F10 mouse melanoma cells; assay: Suppression of α-MSH-induced pigmentation (cell pellet color); format: cell-based; conditions: co-treatment with α-MSH, 72 hours
Procedure: as §2, with “In order to see whether or not β-mangostin can suppress the pigmentation induced by α-MSH (melanocyte-stimulating hormone), B16F10 cells were treated with α-MSH and β-mangostin followed by incubation for 72 hours. As” for “As”

[8] = system: B16F10 mouse melanoma cells; assay: Removal of melanin previously produced by α-MSH; format: cell-based; conditions: treatment after 2 days of α-MSH
Procedure: In order to determine the activity of β-mangostin for removing melanin which has been previously produced by α-MSH as a melanin cell stimulating hormone, B16F10 cells were treated for 2 days with α-MSH to have synthesis of melanin. Thereafter, the cells were treated with β-mangostin of the present invention and 3-MA, which is an autophagy inhibitor.

[9] = system: TRP-1 (tyrosinase-related protein-1); assay: TRP-1 expression (RT-PCR and Western blotting); format: cell-based, mouse; conditions: B16F10 cells
Procedure: as §3, §1
In order to confirm the whitening effect of β-mangostin, RT-PCR and Western blotting analysis were carried out for tyrosinase and TRP-1.

[10] = siATG5, β-mangostin (10 μM) and α-MSH (1 μM), 48 hours
[11] = treatment after 2 days of α-MSH (melanin previously produced)

Cn1cnc(N)c2ncnc1-2 [3-methyladenine]
effect on the suppressed expression of p62 and PMEL induced by β-mangostin [1]: inhibit the suppressed expression
influence on melanin content [2]: starts to increase again
effect on the suppressed tyrosinase expression induced by β-mangostin (tyrosinase [3]): inhibited

CC(C)C[C@@H](C=O)NC(=O)[C@H](CC(C)C)NC(=O)[C@H](CC(C)C)NC(=O)OCc1ccccc1 [MG132] (Cbz-Leu-Leu-Leu-aldehyde)
influence on melanin content [2]: no influence
tyrosinase expression amount (tyrosinase [3]; co-treatment of inhibitor with β-mangostin and α-MSH (proteasome dependence)): did not increase
influence on L-DOPA oxidation (tyrosinase [4]; co-treatment of inhibitor with β-mangostin and α-MSH): no influence

CO/C1=C\C(C)=C\[C@@H](C)[C@@H](O)[C@@H](C)C/C(C)=C/C=C/[C@H](OC)[C@@H]([C@@H](C)[C@@H](O)[C@H](C)[C@@]2(O)C[C@@H](O)[C@H](C)[C@@H](C(C)C)O2)OC1=O [bafilomycin A1]
effect on the suppressed tyrosinase expression induced by β-mangostin (tyrosinase [3]): inhibits

CCN(CC)CCCC(C)Nc1ccnc2cc(Cl)ccc12 (centres unmarked) [chloroquine, reference compound]
effect on the suppressed expression of p62 and PMEL induced by β-mangostin [1]: inhibit the suppressed expression
effect on the suppressed tyrosinase expression induced by β-mangostin (tyrosinase [3]): inhibited

COc1c(O)cc2oc3cc(O)c(CC=C(C)C)c(O)c3c(=O)c2c1CC=C(C)C [α-mangostin]
melanin content reduction [2]: about 20%
cytotoxicity (cell viability, MTT) [5]: potent cytotoxicity

COc1cc2oc3cc(O)c(OC)c(CC=C(C)C)c3c(=O)c2c(O)c1CC=C(C)C [β-mangostin]
number of red spots (mRFP-EGFP-LC3B) [6]: increased
total number of spots (mRFP-EGFP-LC3B) [6]: decreased
cell pellet color [7]: changed from black color to white color
expression of p62 and PMEL reduced by β-mangostin, after knockdown of ATG5 [1, 10]: increased again
expression amount of PMEL [1, 11]: lower a significant expression amount
change in melanin content [2]: effectively reduced
melanin content reduction [2]: ~40%
melanin content level reduced by β-mangostin, after knockdown of ATG5 [2, 10]: increased again
expression amount of tyrosinase induced by α-MSH (tyrosinase [3]; RT-PCR and Western blotting, B16F10 cells): effectively lowered
expression of tyrosinase reduced by β-mangostin, after knockdown of ATG5 (tyrosinase [3]; [10]): increased again
expression amount of tyrosinase (tyrosinase [3]; [11]): lower a significant expression amount
oxidation level of L-DOPA (tyrosinase [4]; co-treatment with α-MSH, concentration dependent): effectively reduced
content of previously formed melanin [8]: lower effectively
expression amount of TRP-1 induced by α-MSH [9]: effectively lowered

CC(C)=CCc1c(O)cc2oc3cc(O)c(O)c(CC=C(C)C)c3c(=O)c2c1O [γ-mangostin]
change in melanin content [2]: further increased the melanin content
